Converted amounts (≈) assume the structure as drawn. Where two headings read alike, the source gives them in different places. *1 amine or outer side, *2 acyl side, *3 side chain or, on linkers, in order; H or OH if unused. Where a SMILES comes first, the peptide text is derived from it. Bridges are numbered along the chain shown (N, C = ends). [ ]: non-standard residue; d: D form. The star is where a group is joined. NMeT = CN[CH](C(=O)O)[CH](C)O; X1 = CCCCCCCCCCCC(O)CC(=O)*; X2 = CC=C(N[*:1])C(=O)[*:2]; X3 = OCC1OC(*)C(O)C(O)C1O
Key:
[1] = system: Aeromonas sp. W-10; assay: Resistance of Aeromonas sp. W-10 to antibacterial agents; format: cell-based; details: in words
Method: The growth and physiological characteristics of Aeromonas sp. All observations were made after seven (7) days of incubation at 28° C. Color designations are assigned according to the classification in the Color Harmony Manual (1958), Container Corporation of America. The designates G, S, C and R used herein stand for growth, surface, color and reaction, respectively.

[2] = system: Candida albicans; assay: In vivo activity in mice infected intravenously with Candida albicans; set-up: species or system male CFl mice; Candida albicans; details: 48 hours after infection, read-out: PD50
Method: PD50 values were determined 48 hours after infection and are as follows: […]

[3] = system: Trichophyton mentagrophytes; assay: In vivo activity against Trichophyton mentagrophytes infection in guinea pigs; details: 1% in polyethylene glycol 400, topical, twice daily for ten days
Method: The skin of fifteen guinea pigs is abraided and infected with a standard culture of Trichophyton mentagrophytes. The infected animals are then separated into three groups containing five animals each. Suspensions containing 1% of the respective antibiotics in polyethylene glycol 400 are prepared. Two of the three groups are treated topically, twice daily for ten days commencing three days after infection. The third group (controls) remained untreated throughout the test. All of the animals are tested for infection by culture and observed for skin lesions for a total of 21 days.

[4] = system: Saccharomyces cerevisiae ATCC 9763; assay: Agar diffusion assay against Antibiotic 20562 standard; format: cell-based
Method: The broths are assayed against a standard solution of Antibiotic 20562 having an assigned potency of 1000 mcg/mg. The standard solution is diluted with 10% potassium phosphate buffer (pH 6.0) to make solutions having antibiotic concentrations of 3.2, 4.0, 5.0, 6.25 and 7.8 mcg/ml. The assay is performed substantially as set forth in the Federal Register, Title 21, Chapter 436.105.

[5] = Toxicity (LD50), oral or subcutaneous administration; details: in vivo
[6] = system: Candida albicans; assay: In vitro MIC against strains of Candida albicans in Sabouraud dextrose broth; format: cell-based
Method: Antibiotic 20562 was tested in vitro in Sabourraud dextrose broth against strains of Candida albicans, the Minimum Inhibitory Concentration (MIC) being set forth in Table IV below: […]

[7] = system: Candida albicans (Wisconsin strain); assay: Topical in vivo activity against Candida albicans intravaginal infection in hamsters; set-up: species or system female hamsters; Candida albicans; details: three day treatment
Method: Using a culture of Candida albicans (Wisconsin strain), in Sabourrauds dextrose broth, infect intravaginally, five groups of six female hamsters. Forty-eight and seventy-two hours after infection, make smears of the infected animals and culture the smears. […] (96 hours after infection), make additional smears, culture and commence treatment. One group of six animals (controls) receives no treatment and, therefore, remains infected throughout the test. The remaining four groups of animals are treated with Antibiotic 20562, as 1%, 5%, 10% and 15% suspensions, respectively, the vehicle for suspension being administered on a cotton swab. At the end of the three day treatment the 1%, 5% and 10% groups are 60% cured, the 15% group is completely (100%) cured.

[8] = sc, single subcutaneous dose one hour after infection
[9] = single oral dose one hour after infection
[10] = Example 2 step B, after chromatography
[11] = Example 3 steps C and D, after chromatography
[12] = isolated antibiotics, crystalline from methanol

Q: Which “sensitivity of Aeromonas sp. W-10 to the vibriostatic compound” value [1] does the source give for `CC(C)c1nc2nc(N)nc(N)c2nc1C(C)C` [0/129, 2,4-diamino-6,7-diisopropylpteridine] here?
A: Its value is “insensitive”.

Q: Which ED50 [2, 8] does the source give for `CC=C(NC(=O)CC(O)CCCCCCCCCCC)C(=O)NC1C(=O)NC(C(C)O)C(=O)NC(Cc2ccc(O)cc2)C(=O)NC(=CC)C(=O)NC(CCC(N)=O)C(=O)NCC(=O)N(C)C(C(C)O)C(=O)NC(Cc2cnc[nH]2)C(=O)OC1C` (centres unmarked) [Antibiotic 20561] (X1-[X2]TTY[X2]QG[NMeT]H; ester 2-C; configuration not given here) here?
A: The ED50 was 4 mg/kg.

Q: And the ED50 [2, 9]?
A: The ED50 was 25 mg/kg.

Q: And the “Days to become negative, Culture” value [3]?
A: Its value is 4.8 days.

Q: What about the “Days to become negative, Lesion” value [3] of the same compound?
A: The value was 6.3 days.

Q: And the “assay (potency)” value [4, 10]?
A: The value was 800 µg/mg.

Q: And the “assay (potency)” value [4, 11]?
A: Its value is 800 µg/mg.

Q: What about the “assay (potency)” value [4, 12] of the same compound?
A: The value was “about 800 mcg/mg”.

Q: What about the LD50 ([5]; po) of the same compound?
A: The LD50 was 1000 mg/kg.

Q: What about the LD50 ([5]; sc) of the same compound?
A: The LD50 was > 1000 mg/kg.

Q: Which MIC ([6]; Candida albicans, strain Burke, read-out: MIC) does the source give for `CC=C(NC(=O)CC(O)CCCCCCCCCCC)C(=O)NC1C(=O)NC(C(C)O)C(=O)NC(Cc2ccc(O)cc2)C(=O)NC(=CC)C(=O)NC(CCC(N)=O)C(=O)NCC(=O)N(C)C(C(C)OC2OC(CO)C(O)C(O)C2O)C(=O)NC(Cc2cnc[nH]2)C(=O)OC1C` (centres unmarked) [Antibiotic 20562] (X1-[X2]TTY[X2]QG[NMeT](X3)H; ester 2-C; configuration not given here) here?
A: Its MIC is 0.075 µg/mL (≈ 0.0552 µM).

Q: And the MIC ([6]; strain 29)?
A: Its MIC is 0.075 µg/mL (≈ 0.0552 µM).

Q: And the MIC ([6]; strain Bevan)?
A: Its MIC is 0.075 µg/mL (≈ 0.0552 µM).

Q: And the MIC ([6]; strain Collins)?
A: Its MIC is 0.075 µg/mL (≈ 0.0552 µM).

Q: What about the MIC ([6]; strain Fix) of the same compound?
A: The MIC was 0.075 µg/mL (≈ 0.0552 µM).

Q: What about the MIC ([6]; strain Lush) of the same compound?
A: Its MIC is 0.075 µg/mL (≈ 0.0552 µM).

Q: And the MIC ([6]; strain Merkel)?
A: The MIC was 0.075 µg/mL (≈ 0.0552 µM).

Q: And the MIC ([6]; strain Newcomb)?
A: The MIC was 0.075 µg/mL (≈ 0.0552 µM).

Q: And the MIC ([6]; strain No. 1)?
A: The MIC was 0.075 µg/mL (≈ 0.0552 µM).

Q: What about the MIC ([6]; strain Raub) of the same compound?
A: Its MIC is 0.075 µg/mL (≈ 0.0552 µM).

Q: And the MIC ([6]; strain Sperk)?
A: Its MIC is 0.075 µg/mL (≈ 0.0552 µM).

Q: What about the MIC ([6]; strain Wisconsin) of the same compound?
A: The MIC was 0.075 µg/mL (≈ 0.0552 µM).

Q: And the ED50 [2, 8]?
A: Its ED50 is 4 mg/kg.

Q: What about the ED50 [2, 9] of the same compound?
A: Its ED50 is 25 mg/kg.

Q: And the cured ([7]; 1% suspension)?
A: Its cured is 60%.

Q: And the cured ([7]; 5% suspension)?
A: Its cured is 60%.

Q: And the cured ([7]; 10% suspension)?
A: Its cured is 60%.

Q: And the cured ([7]; 15% suspension)?
A: The cured was 100%.

Q: What about the “Days to become negative, Culture” value [3] of the same compound?
A: Its value is 5.8 days.

Q: What about the “Days to become negative, Lesion” value [3] of the same compound?
A: The value was 9.0 days.

Q: And the “assay (potency)” value [4, 10]?
A: The value was 800 µg/mg.

Q: What about the “assay (potency)” value [4, 11] of the same compound?
A: Its value is 1000 µg/mg.

Q: What about the “assay (potency)” value [4, 12] of the same compound?
A: Its value is “about 1000 mcg/mg”.

Q: What about the LD50 ([5]; po) of the same compound?
A: Its LD50 is 800 mg/kg.

Q: What about the LD50 ([5]; sc) of the same compound?
A: Its LD50 is 600 mg/kg.

Source: US4137224A (Schering Corporation, priority 1977, dated 1979)
